Among the data in patent US20120165304A1, “6,7,8,9-Tetrahydro-5H-1,4,7,10a-tetraaza-cyclohept[f]indene derivatives, pharmaceutical compositions containing these compounds, their use and processes for preparing them” (BOEHRINGER INGELHEIM INTERNATIONAL GMBH, priority 2008, published 2012) are EC50 values, retold here.

pEC50: −log10 of the molar value.

For the test, the target named is human 5-HT2C receptor (Homo sapiens, UniProt P28335, I156V/I160V/N158S). In words: cell-based.
Chain of human 5-HT2C receptor (P28335 33-458 I156V/N158S/I160V limits assumed): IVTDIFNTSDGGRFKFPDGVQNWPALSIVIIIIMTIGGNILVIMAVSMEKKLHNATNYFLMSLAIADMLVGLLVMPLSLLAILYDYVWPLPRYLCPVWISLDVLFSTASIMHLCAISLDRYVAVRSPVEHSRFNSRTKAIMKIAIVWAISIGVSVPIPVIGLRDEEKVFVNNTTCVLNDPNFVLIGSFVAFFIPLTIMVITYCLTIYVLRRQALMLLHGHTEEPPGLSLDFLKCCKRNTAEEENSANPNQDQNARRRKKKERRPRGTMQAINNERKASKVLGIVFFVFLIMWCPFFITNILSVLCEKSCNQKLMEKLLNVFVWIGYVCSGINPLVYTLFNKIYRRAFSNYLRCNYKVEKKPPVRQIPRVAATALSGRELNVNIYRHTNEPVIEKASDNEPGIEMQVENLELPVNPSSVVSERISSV
What is called pEC50 is −log10 of the EC50, conventionally taken in molar units. High values mean a low EC50, low ones a high EC50. In turn, `Cc1cnn2c(N3CC(C(=O)N4CCCC(F)(F)C4)C3)c3c(nc12)CCNCC3` [Example 31.238] showed a pEC50 of 7.89. For `O=C(NC1CC2CCC1C2)C1CN(c2c3c(nc4ccnn24)CCNCC3)C1` (centres unmarked) [Example 37.84], the pEC50 was 7.21. This pEC50 lies 0.68 log units lower than the previous one.

`CN(Cc1cccc(F)c1)C(=O)C1CN(c2c3c(nc4ccnn24)CCNCC3)C1` [Example 31.125] gave a pEC50 of 7.42. This pEC50 is 0.21 log units higher than that of the molecule before. Regarding `CC(C)c1ccc(OC2CN(c3c4c(nc5ccnn35)CCNCC4)C2)cc1` [Example 35.44], the pEC50 was 6.59. `Cc1cnn2c(N3CC(C(=O)N4CCC5(CCCCC5)CC4)C3)c3c(nc12)CCNCC3` [Example 31.235] had a pEC50 of 7.08. In the case of `c1ccc(OC2CN(c3c4c(nc5ccnn35)CCNCC4)C2)nc1` [Example 20.6], the pEC50 is 7.42. With `CNC1CCN(C(=O)C2CN(c3c4c(nc5ccnn35)CCNCC4)C2)CC1` [Example 37.14] the figure was 9.00; with `CN1CCc2nc3ccnn3c(N3CC(C(=O)N4CCC5(CCC5)C4)C3)c2CC1` [Example 36.34], 6.05; with `CC1(C(=O)N2CCc3c(cccc3C(F)(F)F)C2)CN(c2c3c(nc4ccnn24)CCNCC3)C1` [Example 32.3], 5.71. On to `FC(F)(F)c1ccc(OC2CN(c3c4c(nc5ccnn35)CCNCC4)C2)nc1` [Example 20.8], for which the pEC50 is 6.03. With `O=C(C1CN(c2c3c(nc4ccnn24)CCNCC3)C1)N1CC[C@@H]2CCCC[C@@H]2C1` [Example 31.131], the pEC50 was 7.13. Turning to `CN(Cc1ccc(Cl)c(Cl)c1)C(=O)C1CN(c2c3c(nc4ccnn24)CCNCC3)C1` [Example 31.81], the pEC50 is 7.48. Turning to `Cc1cccc(C2CCN(C(=O)C3CN(c4c5c(nc6ccnn46)CCNCC5)C3)CC2)c1` [Example 31.167], the pEC50 is 7.00. `CC(C)N1CCCN(C(=O)C2CN(c3c4c(nc5ccnn35)CCN(C)CC4)C2)CC1` [Example 36.49] had a pEC50 of 7.11. With `CC1CN(C(=O)C2CN(c3c4c(nc5ccnn35)CCNCC4)C2)CC(C)N1` (centres unmarked) [Example 37.13] the figure was 9.00; with `O=C1CN(C(=O)C2CN(c3c4c(nc5ccnn35)CCNCC4)C2)CCN1` [Example 37.12], 7.57; with `Cn1c(C2CN(c3c4c(nc5ccnn35)CCNCC4)C2)nc2cc(F)ccc21` [Example 34.38], 6.54. Molecule `CN1CCc2nc3ccnn3c(N3CC(C(=O)N4CCN(CC5CC5)CC4)C3)c2CC1` [Example 36.18] had a pEC50 of 7.11.

With `CN1CCc2nc3ccnn3c(N3CC(C(=O)N4CCN(C5CCCCC5)CC4)C3)c2CC1` [Example 36.54], the pEC50 was 7.01. In the case of `O=C(C1CN(c2c3c(nc4ccnn24)CCNCC3)C1)N1CCC(N2CCCC2)CC1` [Example 37.5], the pEC50 was 8.70. The molecule `O=C(NCC1CC1)C1CN(c2c3c(nc4ccnn24)CCNCC3)C1` [Example 37.75] gave a pEC50 of 6.86. For `CCC1CCC(C)N(C(=O)C2CN(c3c4c(nc5ccnn35)CCNCC4)C2)C1` (centres unmarked) [Example 31.184], the pEC50 was 6.54. `O=C(NCc1ccccc1)C1CCCN(c2c3c(nc4ccnn24)CCNCC3)C1` (centres unmarked) [Example 1.22] showed a pEC50 of 5.85. `Cc1cccc(CN(C)C(=O)C2CN(c3c4c(nc5ccnn35)CCNCC4)C2)c1` [Example 31.49]: the pEC50 was 7.29. Turning to `COc1ccc(C)cc1OCC1CN(c2c3c(nc4ccnn24)CCNCC3)C1` [Example 15.7], the pEC50 was 7.92. Then `CCCC1CCN(C(=O)C2CN(c3c4c(nc5ccnn35)CCNCC4)C2)CC1` [Example 31.69], with 7.44. `c1cc2nc3c(c(N4CC(OC5CCCC5)C4)n2n1)CCNCC3` [Example 20.5] had a pEC50 of 6.45. This pEC50 lies 0.99 log units lower than the previous one. With `O=C(C1CN(c2c3c(nc4ccnn24)CCNCC3)C1)N1CCNCC1` [Example 37.44], the pEC50 was 8.70. This pEC50 is 2.25 log units higher than that of the molecule before. Then `CN(C)CCCNC(=O)C1CN(c2c3c(nc4ccnn24)CCN(C)CC3)C1` [Example 36.53], with 7.06; and `COc1cc(Br)ccc1OC1CN(c2c3c(nc4ccnn24)CCNCC3)C1` [Example 35.17], with 7.06; and `O=C(C1CN(c2c3c(nc4ccnn24)CCNCC3)C1)N1CCc2c(cccc2C(F)(F)F)C1` [Example 31.102], with 7.44. With `CCOc1cccc(OC2CN(c3c4c(nc5ccnn35)CCNCC4)C2)c1` [Example 35.27], the pEC50 was 7.03. `CC(C)(O)[C@@H]1CCCN1C(=O)C1CN(c2c3c(nc4ccnn24)CCNCC3)C1` [Example 31.194] had a pEC50 of 5.59. For the molecule `O=C(C1CN(c2c3c(nc4ccnn24)CCNCC3)C1)N1CCC(OCc2ccccc2)CC1` [Example 31.199], the pEC50 is 7.32. `c1ccc(C2CCN(c3c4c(nc5ccnn35)CCNCC4)C2)cc1` (centres unmarked) [Example 1.26] showed a pEC50 of 6.80. `c1ccc(OCC2CN(c3c4c(nc5ccnn35)CCNCC4)C2)cc1` [Example 15.17]: the pEC50 was 7.51. Against the preceding molecule, the pEC50 is 0.71 log units higher. On to `CN(C)C1CN(C(=O)C2CN(c3c4c(nc5ccnn35)CCNCC4)C2)C1` [Example 37.33], for which the pEC50 was 8.15. `Fc1cccc(Cl)c1OCC1CN(c2c3c(nc4ccnn24)CCNCC3)C1` [Example 15.14]: the pEC50 is 8.70. With `O=C(C1CN(c2c3c(nc4ccnn24)CCNCC3)C1)N1CCCC2(CCCc3ccccc32)C1` (centres unmarked) [Example 31.172] the figure was 6.12; with `CN(Cc1ccc(C(F)(F)F)cc1)C(=O)C1CN(c2c3c(nc4ccnn24)CCNCC3)C1` [Example 31.87], 7.44; with `O=C(C1CN(c2c3c(nc4ccnn24)CCNCC3)C1)N1CCN(c2ccc(F)cc2)CC1` [Example 37.8], 8.10. `O=C(C1CN(c2c3c(nc4ccnn24)CCNCC3)C1)N1CCCC(c2ccccc2)C1` (centres unmarked) [Example 31.108]: the pEC50 is 6.95. This pEC50 lies 1.15 log units lower than the previous one.

The molecule `Cc1cccnc1CN(C)C(=O)C1CN(c2c3c(nc4ccnn24)CCNCC3)C1` [Example 31.196] gave a pEC50 of 6.71. Against the preceding molecule, the pEC50 is 0.24 log units lower.

In turn, `O=C(C1CN(c2c3c(nc4ccnn24)CCNCC3)C1)N1CCCC(F)(F)CC1` [Example 40, (4,4-Difluoro-perhydro-azepin-1-yl)-[1-(6,7,8,9-tetrahydro-5H-1,4,7,10a-tetraaza-cyclohept[f]inden-10-yl)-azetidin-3-yl]-methanone] had a pEC50 of 8.22.

Molecule `Cc1csc(C2CN(c3c4c(nc5ccnn35)CCNCC4)C2)n1` [Example 11, 10-[3-(4-Methyl-thiazol-2-yl)-azetidin-1-yl]-6,7,8,9-tetrahydro-5H-1,4,7,10a-tetraaza-cyclohepta[f]indene] showed a pEC50 of 6.79. `CC(C)N1CCN(C(=O)C2CN(c3c4c(nc5ccnn35)CCN(C)CC4)C2)CC1` [Example 36.6] gave a pEC50 of 7.17. This pEC50 is 0.38 log units higher than that of the molecule before. Consider `O=C(C1CN(c2c3c(nc4ccnn24)CCNCC3)C1)N1CCC(Oc2ccccc2Cl)CC1` [Example 31.145], for which the pEC50 is 7.03. As to `c1ccc(OCC2CN(c3c4c(nc5ccnn35)CCNCC4)C2)nc1` [Example 15.28], the pEC50 was 7.62. This pEC50 is 0.59 log units higher than that of the molecule before. On to `O=C(C1CN(c2c3c(nc4ccnn24)CCNCC3)C1)N1CCCCC1c1cccnc1` (centres unmarked) [Example 31.187], for which the pEC50 is 6.00. Against the preceding molecule, the pEC50 is 1.62 log units lower. `FC(F)(F)c1ccccc1OC1CN(c2c3c(nc4ccnn24)CCNCC3)C1` [Example 35.31]: the pEC50 was 6.89. With `c1ccc(COC2CN(c3c4c(nc5ccnn35)CCNCC4)C2)nc1` [Example 20.15] the figure was 6.74. For the molecule `COC1CN(c2c3c(nc4ccnn24)CCNCC3)C1` [Example 16.1], the pEC50 is 7.09. Regarding `COc1ccccc1CN(C)C(=O)C1CN(c2c3c(nc4ccnn24)CCNCC3)C1` [Example 31.51], the pEC50 was 7.07. With `O=C(C1CN(c2c3c(nc4ccnn24)CCNCC3)C1)N1CCN(Cc2ccc(F)cc2)CC1` [Example 37.23] the figure was 8.22. Molecule `c1ccc(C(OC2CCCN(c3c4c(nc5ccnn35)CCNCC4)C2)c2ccccc2)cc1` (centres unmarked) [Example 1.37] gave a pEC50 of 5.89. `Cc1ccc2c(c1)CCCN2C(=O)C1CN(c2c3c(nc4ccnn24)CCNCC3)C1` [Example 31.190] gave a pEC50 of 8.40. For `CN(Cc1ccc(OC(F)F)cc1)C(=O)C1CN(c2c3c(nc4ccnn24)CCNCC3)C1` [Example 31.161], the pEC50 was 7.82. As to `CN1CCc2nc3ccnn3c(N3CC(C(=O)N4CC[C@H]5CNC[C@H]54)C3)c2CC1` [Example 36.40], the pEC50 is 6.55.

The molecule `COc1ccc2c(c1)CCN(c1c3c(nc4ccnn14)CCNCC3)C2` [Example 1.23] gave a pEC50 of 6.28.

In turn, `CC(C)CCNC(=O)C1CN(c2c3c(nc4ccnn24)CCN(C)CC3)C1` [Example 36.56] gave a pEC50 of 6.66. With `c1ccc2oc(C3CN(c4c5c(nc6ccnn46)CCNCC5)C3)nc2c1` [Example 14, 10-(3-Benzooxazol-2-yl-azetidin-1-yl)-6,7,8,9-tetrahydro-5H-1,4,7,10a-tetraaza-cyclohepta[f]indene] the figure was 6.17. Consider `CN1CCc2nc3ccnn3c(N3CC(C(=O)N4CCC(F)(F)C4)C3)c2CC1` [Example 36.30], for which the pEC50 is 6.93. This pEC50 is 0.76 log units higher than that of the molecule before. Then `CN1CCc2nc3ccnn3c(N3CC(C(=O)N4CCC(C#N)C4)C3)c2CC1` (centres unmarked) [Example 36.44], with 6.67; and `FC(F)(F)c1ccnc(OC2CN(c3c4c(nc5ccnn35)CCNCC4)C2)c1` [Example 20.9], with 7.08. Regarding `O=C(C1CN(c2c3c(nc4ccnn24)CCNCC3)C1)N1CCC2(CCCC2)CC1` [Example 31.41], the pEC50 is 7.24.

As to `O=C(C1CN(c2c3c(nc4ccnn24)CCNCC3)C1)N1CC=CC1` [Example 31.183], the pEC50 was 6.51. This pEC50 lies 0.73 log units lower than the previous one. Molecule `CN(C)CCN(C)C(=O)C1CN(c2c3c(nc4ccnn24)CCN(C)CC3)C1` [Example 36.2] gave a pEC50 of 6.25.

Molecule `CN(C)CCCN(C)C(=O)C1CN(c2c3c(nc4ccnn24)CCNCC3)C1` [Example 37.41] gave a negative logarithm of the EC50 (pEC50) of 8.10. In turn, `CN1CCc2nc3ccnn3c(N3CC(C(=O)N4CCN(C(=O)C5CC5)CC4)C3)c2CC1` [Example 36.43] had a pEC50 of 6.58. Compared with the last molecule, the pEC50 is 1.52 log units lower.

`CN(Cc1ccc2ccccc2c1)C(=O)C1CN(c2c3c(nc4ccnn24)CCNCC3)C1` [Example 31.169] gave a pEC50 of 7.48. Take `CC1CCCCN1C(=O)C1CN(c2c3c(nc4ccnn24)CCNCC3)C1` (centres unmarked) [Example 31.62]: the pEC50 was 6.03. This pEC50 is 1.45 log units lower than that of the molecule before.
